Values of other authors, collected in US20060233725A1, “Non-Endocrine Disrupting Cytoprotective UV Radiation Resistant Substance” (priority 2001, published 2006).

Test system: cancer cells
Details: recent studies on endocrine disrupting agents in sunscreen formulations

Effect on growth of cancer cells, made cancer cells grow more rapidly:
Cc1ccc(C=C2C(=O)C3(C)CCC2C3(C)C)cc1 (centres unmarked) [4-methylbenzylidene camphor]
COc1ccc(C(=O)c2ccccc2)c(O)c1 [benzophenone-s]
CC1CC(OC(=O)c2ccccc2O)CC(C)(C)C1 (centres unmarked) [homosalate]
CCCCC(CC)COC(=O)C=Cc1ccc(OC)cc1 (centres unmarked) [octyl methoxycinnamate]
CCCCC(CC)COC(=O)c1ccc(N(C)C)cc1 (centres unmarked) [octyl-dimethyl-PABA]
